# According to patent publication US20010027213A1, “Use of pyrethroid compounds to promote hair growth” (priority 1998, published 2001):
# What was measured:
# Type in all cases: in vivo
# [1] = test system: mice (C3H strain); assay: Ear thickness (primary skin irritancy) after topical application, Example 1
# Description: The following example was performed to determine if pyrethroid compounds cause skin irritation (as indicated by ear thickness in mice). Skin irritants may contribute to promoting hair growth.
# Prior to the experiment, ear thickness of mice (C3H strain, female, 16 weeks of age, n=3/group) was measured with a thickness gage (Mitsutoyo Corp.). After measuring ear thickness of both ears, 10 μL of ethanol was applied on left ear and 10 μL of a pyrethroid solution (1% pyrethroid compound in ethanol) was applied to the right ear. Ear thickness was measured for three consecutive days after administration.
# [2] = test system: mice (Sencar strain); assay: Ear thickness after TPA plus pyrethroid application, Example 2
# Description: Another ear thickness experiment was performed. Ear thickness of mice (Sencar strain, female, 10 weeks of age, n =3/group) was measured with a thickness gage (Mitsutoyo Corp.). After measuring the thickness of both ears at the beginning of the experiment, 20 μL of 12-O-tetradecanoyl-phorbol 13-acetate (TPA) at a concentration of 10^−4 M in acetone was applied on both ears, followed by the application of 10 μL of ethanol on the left ears and 10 μL of the four compositions tested in Example 1 on the right ears (at a concentration of 1% of pyrethroid compound in ethanol solution). Again, ear thickness was monitored over three consecutive days following administration of the compositions.
# [3] = test system: mice of the C3H strain; assay: Skin irritancy on clipped back skin, visual score, Example 3; conditions: three repeated topical administration, 1% in ethanol
# Description: This experiment was conducted to test the skin irritancy of the compositions of this invention on hair-growing areas of test subjects, i.e., female mice (10 weeks old) of the C3H strain (n=5 group). After clipping the hair of the back skin of mice with an electric clipper, 5 μL/cm^2 of each four composition tested in Examples 1 and 2 (at a concentration of 1% in an ethanol solution) were applied. The application was administered once a day, for 3 consecutive days. Skin irritation was evaluated by unaided visual inspection at the end of the third day.
# [4] = test system: C3H strain mice; assay: Hair growth on clipped back skin, topical daily application, Example 4; parameters: Level of hair growth (unaided visual inspection): scale not given here; conditions: 1%, 5 μL/cm^2 daily, n=5/group
# Description: The ability of topical administration of pyrethroid compounds to promote hair growth was assessed in female C3H strain mice (10 weeks old; n=5/group). Hair on the back skin of the mice was clipped carefully with an electric clipper. 5 μL/cm^2 of the five compositions tested in the examples above were applied to the mice daily. The level of hair growth at the applied skin areas were evaluated by unaided visual inspection at the indicated time.
# [5] = test system: C3H strain mice; assay: Hair growth on clipped back skin, repeat with minoxidil control, Example 5; parameters: Level of hair growth (unaided visual inspection): scale not given here
# Description: The ability of topical administration of pyrethroid compounds to promote hair growth was assessed in female C3H strain mice (10 weeks old; n=5/group). Hair on the back skin of the mice was clipped carefully with an electric clipper. 5 μL/cm^2 of the five compositions tested in the examples above were applied to the mice daily. The level of hair growth at the applied skin areas were evaluated by unaided visual inspection at the indicated time. Cyclosporin A was used as a control.
# The experiment described in Example 4 was repeated with a commercially available hair growth-promoting compound (5% minoxidil) as a control.
structure (smiles),measurement,setting,value
"CC1(C)C(C=C(Cl)Cl)C1C(=O)OCc1cccc(Oc2ccccc2)c1 (stereo not drawn) [Permethrin, permethrin]",Ear thickness compared to ethanol,"[1]; 1% in ethanol, C3H mice",did not increase ear thickness
same,Right ear thickness,"[1]; day 0 (before application), C3H female mice, n=3",27.3 ×0.01 mm
same,Right ear thickness,"[1]; day 1, 10 μL of 1% in ethanol on right ear, C3H mice",27.7 ×0.01 mm
same,Right ear thickness,"[1]; day 2, 10 μL of 1% in ethanol on right ear, C3H mice",27.7 ×0.01 mm
same,Right ear thickness,"[1]; day 3, 10 μL of 1% in ethanol on right ear, C3H mice",28.3 ×0.01 mm
same,Right ear thickness,"[2]; day 0 (before application), Sencar female mice, n=3",23.3 ×0.01 mm
same,Right ear thickness,"[2]; day 1, 20 μL TPA 10^−4 M in acetone then 10 μL of 1% in ethanol, Sencar mice",27.3 ×0.01 mm
same,Right ear thickness,"[2]; day 2, 20 μL TPA 10^−4 M in acetone then 10 μL of 1% in ethanol, Sencar mice",27.0 ×0.01 mm
same,Right ear thickness,"[2]; day 3, 20 μL TPA 10^−4 M in acetone then 10 μL of 1% in ethanol, Sencar mice",27.7 ×0.01 mm
same,Skin irritation (redness),[3],failed to cause skin irritation
same,Level of hair growth (unaided visual inspection),[4]; Day 7,0
same,Level of hair growth (unaided visual inspection),[4]; Day 14,0
same,Level of hair growth (unaided visual inspection),[4]; Day 19,0
same,Level of hair growth (unaided visual inspection),[4]; Day 29,0
same,Level of hair growth (unaided visual inspection),[4]; Day 36,0
same,Level of hair growth (unaided visual inspection),"[5]; 0.01%, Week 1",0
same,Level of hair growth (unaided visual inspection),"[5]; 0.01%, Week 2",0
same,Level of hair growth (unaided visual inspection),"[5]; 0.01%, Week 3",0
same,Level of hair growth (unaided visual inspection),"[5]; 0.01%, Week 4",0
same,Level of hair growth (unaided visual inspection),"[5]; 0.01%, Week 5",0
same,Level of hair growth (unaided visual inspection),"[5]; 0.01%, Week 6",0
same,Level of hair growth (unaided visual inspection),"[5]; 0.1%, Week 1",0
same,Level of hair growth (unaided visual inspection),"[5]; 0.1%, Week 2",0
same,Level of hair growth (unaided visual inspection),"[5]; 0.1%, Week 3",0
same,Level of hair growth (unaided visual inspection),"[5]; 0.1%, Week 4",0
same,Level of hair growth (unaided visual inspection),"[5]; 0.1%, Week 5",0
same,Level of hair growth (unaided visual inspection),"[5]; 0.1%, Week 6",0
same,Level of hair growth (unaided visual inspection),"[5]; 1%, Week 1",0
same,Level of hair growth (unaided visual inspection),"[5]; 1%, Week 2",0
same,Level of hair growth (unaided visual inspection),"[5]; 1%, Week 3",0
same,Level of hair growth (unaided visual inspection),"[5]; 1%, Week 4",0
same,Level of hair growth (unaided visual inspection),"[5]; 1%, Week 5",0
same,Level of hair growth (unaided visual inspection),"[5]; 1%, Week 6",1
